Results: publication PMC11650361 (Archiv Der Pharmazie, 2024)
Read-outs that look alike come from different tables or passages of the source.

Key:
[1] = system: SH‐SY5Y (human neuroblastoma) cells; assay: Cytotoxicity, MTT assay, SH-SY5Y; format: cell-based; settings: 24 h
[2] = system: HEK293T (human embryonic kidney) cells; assay: Cytotoxicity, MTT assay, HEK293T; format: cell-based; settings: HEK-293T, 24 h
[3] = system: HepG2 cells (human hepatocellular carcinoma); assay: Cytotoxicity, MTT assay, HepG2; format: cell-based
[4] = ABTS radical cation scavenging activity assay; settings: for ABTS^•+‐scavenging activity, TEAC: relative to Trolox, 1 h incubation, n.a. = inactive; for IC50: concentration reducing ABTS radical by 50%, 1 h
Protocol: Data are given for 1 h of incubation of compounds with ABTS^•+. The AOA of the compounds was evaluated as Trolox equivalent antioxidant capacity (TEAC values) as the ratio of the slopes of the concentration–response curves, test compound/Trolox. All tests were performed at least in triplicate in three independent experiments. The IC50 values for the test compounds were also determined.

[5] = cited from earlier work
[6] = target: T1, PAS of Electrophorus electricus AChE (EeAChE) (Electrophorus electricus, UniProt O42275); format: binding; settings: 20 µM compound concentration
T1 construct: purchased Sigma-Aldrich type VI-S; host or cells: electric eel tissue
Protocol: The ability of the test compounds to competitively displace propidium was evaluated by the fluorescence method,^[ [65] ^] as described in detail in Makhaeva et al.^[ [66] ^] […] After 15 min of incubation of the test compounds at a concentration of 20 μM with a 7 μM solution of EeAChE in 1 mM Tris‐HCl buffer, pH 8.0, 25°C, propidium iodide (final concentration 8 μM) was added. Then, the solutions were incubated for 15 min and the fluorescence spectrum was recorded (530 nm (excitation) and 600 nm (emission)). […] Measurements were performed in triplicate on a FLUOStar Optima microplate reader (BMG LabTech).
The 7 μM EeAChE was incubated with the test compound at a concentration of 20 μM in 1 mM Tris-HCl buffer pH 8.0, 25 °C, for 15 min. After that, propidium iodide was added at final concentration of 8 μM. The samples were incubated for 15 min and the fluorescence spectrum (530 nm (excitation) and 600 nm (emission)) was taken. […] The measurements were carried out in triplicate on a FLUOStar Optima microplate reader. The degree of propidium displacement (% displacement) from the PAS of EeAChE was calculated by formula (1):
% Displacement = 100 – (IFAChE+ Propidium + inhibitor / IFAChE + Propidium) × 100 (1),
where IFAChE + Propidium is the fluorescence intensity of the propidium associated with AChE in the absence of the test compound (taken as 100%), and IFAChE + Propidium + inhibitor is the fluorescence intensity of the propidium associated with AChE in the presence of the test compound.

[7] = target: β‐amyloid (1–42) (Aβ42) (Homo sapiens, UniProt P05067); assay: Inhibition of Aβ42 self-aggregation (thioflavin T fluorescence); format: biochemical; settings: Aβ42 50 µM, compound 100 µM; read-out: Inhibition of Aβ42 self‐aggregation, %
Protocol: Inhibition of Aβ42 self‐aggregation by test compounds was studied using the ThT fluorescence method^[ [67], [68] ^] with minor modifications as described in detail in Makhaeva et al.^[ [16] ^] Lyophilized hexamfluoroisopropanol‐pretreated Aβ42 (GenicBio Limited, 1 mg) was dissolved in DMSO to obtain a stable 500 μM solution. […] Myricetin and propidium iodide in the same concentration were used as references. […] Each assay was run in triplicate.
^c The inhibitory effect of the test compounds toward Aβ42 self-aggregation was determined using the thioflavin T (ThT) fluorescence method ^[5-7] with minor modifications as described in detail in ^[8]. Lyophilized HFIP-pretreated Aβ42 from BACHEM (Bubendorf, Switzerland) was used. […] Myricetin and propidium iodide were used as reference compounds (positive controls). Analyses were performed with a FLUOStar Optima microplate reader (LabTech, Ortenberg, Germany). The inhibition (%) of Aβ42 self-aggregation by the test compounds was calculated by the following equation: […]
where IFi and IFo are the fluorescence intensities obtained for Aβ42 in the presence and in the absence of inhibitor, respectively, after subtracting the fluorescence of respective blanks.

[8] = target: T2, human erythrocyte AChE (Homo sapiens, UniProt P22303); assay: biochemical; format: biochemical; settings: for IC50: human erythrocyte AChE, mean ± SEM, n = 3
T2 construct: purchased Sigma-Aldrich; Milamed, Perm, Russia (supplement); host or cells: human erythrocytes

[9] = system: porcine liver CES; assay: In vitro CES inhibition (4-NPA substrate); format: biochemical; settings: for CES inhibition, %: % inhibition at 20 μM, n.a. = not active
Protocol: The esterase profile of the synthesized conjugates was determined. This included an assessment of their inhibition of cholinergic targets AChE and BChE along with a structurally related enzyme CES (EC 3.1.1.1), which hydrolyzes numerous ester‐containing drugs and is considered as an off‐target for anti‐AD agents.^[ [9], [40] ^] Human erythrocyte AChE, equine serum BChE, and porcine liver CES were used.^[ [40], [41], [42] ^]
Initially, we used a single concentration of 20 µM for all compounds.
^a All experiments were carried out in accordance with the standard protocols approved by IPAС RAS. Human erythrocyte AChE, equine serum BChE were purchased from Milamed (Perm, Russia). Porcine liver CES, substrates, and reference compounds were from Sigma-Aldrich (St. Louis, MO, USA). The activity of enzymes was measured spectrophotometrically, as described in detail in ^[1] using ATCh iodide, BTCh iodide, and 4-NPA as substrates for AChE, BChE, and CES, respectively. Experimental conditions: K,Na-phosphate buffer (100 mM), 25 °С, pH 7.5 for AChE and BChE and pH 8.0 for CES assay. Measurements were carried out on a FLUOStar Optima microplate reader (BMG Labtech, Ortenberg, Germany). Test compounds were dissolved in DMSO; final concentration of solvent in the incubation mixture was 2% (v/v).

[10] = target: T3, equine serum BChE (Equus caballus, UniProt P81908); assay: biochemical
T3 construct: purchased Sigma-Aldrich; Milamed, Perm, Russia (supplement); host or cells: horse serum

[11] = design: method as in PMID 35322571; settings: cited from earlier work
[12] = system: porcine liver CES; design: method as in PMID 35322571; settings: % inhibition at 20 μM; cited from earlier work
[13] = MTT, mean ± SEM, n = 3, read-out: SH‐SY5Y IC50
[14] = MTT, mean ± SEM, n = 3, read-out: HEK293T IC50
[15] = HepG2, MTT, 24 h, mean ± SEM, n = 3, read-out: Hep G2 IC50
[16] = equine serum BChE, mean ± SEM, n = 3

T2 sequence (P22303 32-617 isoform P22303-2 limits assumed): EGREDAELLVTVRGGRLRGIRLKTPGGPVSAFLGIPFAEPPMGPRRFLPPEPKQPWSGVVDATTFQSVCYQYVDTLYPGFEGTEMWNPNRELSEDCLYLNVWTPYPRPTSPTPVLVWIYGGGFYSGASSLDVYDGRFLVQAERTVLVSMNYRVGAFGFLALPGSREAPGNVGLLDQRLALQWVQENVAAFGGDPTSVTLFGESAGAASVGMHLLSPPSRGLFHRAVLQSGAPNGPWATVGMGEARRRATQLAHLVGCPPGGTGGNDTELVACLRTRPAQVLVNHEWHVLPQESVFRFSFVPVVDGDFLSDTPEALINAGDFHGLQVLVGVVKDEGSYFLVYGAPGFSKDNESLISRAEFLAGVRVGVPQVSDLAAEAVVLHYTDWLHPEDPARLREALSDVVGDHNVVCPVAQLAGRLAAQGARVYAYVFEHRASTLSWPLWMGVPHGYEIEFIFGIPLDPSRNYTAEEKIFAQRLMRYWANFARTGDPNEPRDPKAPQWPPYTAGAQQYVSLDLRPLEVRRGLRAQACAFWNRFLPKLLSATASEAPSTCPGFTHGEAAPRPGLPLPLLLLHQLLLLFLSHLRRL
T1 sequence (O42275 24-633): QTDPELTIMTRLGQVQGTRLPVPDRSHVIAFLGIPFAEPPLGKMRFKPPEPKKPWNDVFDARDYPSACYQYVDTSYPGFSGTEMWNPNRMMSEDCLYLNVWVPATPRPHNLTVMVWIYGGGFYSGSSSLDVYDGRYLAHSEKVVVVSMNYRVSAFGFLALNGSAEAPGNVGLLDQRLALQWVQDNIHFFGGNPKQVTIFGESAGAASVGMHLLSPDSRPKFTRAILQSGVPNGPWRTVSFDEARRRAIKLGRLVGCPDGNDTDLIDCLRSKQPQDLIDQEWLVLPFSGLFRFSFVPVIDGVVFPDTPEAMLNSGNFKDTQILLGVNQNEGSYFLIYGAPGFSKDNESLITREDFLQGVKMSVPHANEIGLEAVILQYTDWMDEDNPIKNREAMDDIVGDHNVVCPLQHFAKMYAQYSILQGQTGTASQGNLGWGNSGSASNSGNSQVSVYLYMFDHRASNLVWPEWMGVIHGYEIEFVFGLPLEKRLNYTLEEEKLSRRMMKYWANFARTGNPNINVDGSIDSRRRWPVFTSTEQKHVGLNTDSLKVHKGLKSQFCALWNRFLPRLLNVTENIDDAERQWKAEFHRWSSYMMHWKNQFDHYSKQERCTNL
Sequence of β‐amyloid (1–42) (Aβ42) (P05067 672-713 limits assumed): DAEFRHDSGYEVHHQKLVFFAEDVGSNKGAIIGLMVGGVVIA
T3 sequence (P81908 whole entry): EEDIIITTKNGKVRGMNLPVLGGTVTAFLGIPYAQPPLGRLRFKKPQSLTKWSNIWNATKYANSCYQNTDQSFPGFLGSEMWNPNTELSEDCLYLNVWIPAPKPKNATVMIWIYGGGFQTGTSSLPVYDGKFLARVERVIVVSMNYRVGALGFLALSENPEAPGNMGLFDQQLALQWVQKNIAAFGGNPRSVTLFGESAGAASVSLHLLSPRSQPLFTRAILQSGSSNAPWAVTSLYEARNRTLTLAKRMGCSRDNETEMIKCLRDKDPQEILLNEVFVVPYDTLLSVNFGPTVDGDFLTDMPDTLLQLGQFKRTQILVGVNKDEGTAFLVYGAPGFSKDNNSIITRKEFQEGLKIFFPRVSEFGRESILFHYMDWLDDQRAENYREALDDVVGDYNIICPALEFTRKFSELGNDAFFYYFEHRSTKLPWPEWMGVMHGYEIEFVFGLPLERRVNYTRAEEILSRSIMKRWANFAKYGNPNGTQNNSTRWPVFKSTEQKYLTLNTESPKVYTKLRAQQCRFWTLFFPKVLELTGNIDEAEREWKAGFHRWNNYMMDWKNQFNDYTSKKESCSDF

Compound | ABTS^•+‐scavenging activity, TEAC [4] | IC50 [1, 13] [µM] | IC50 [2, 14] [µM] | IC50 [3, 15] [µM] | IC50 [4] [µM] | Propidium displacement, % [6] [%] | inhibition at 100 µM [7] [%] | IC50 [8] [µM] | CES inhibition, % [9] | Selectivity index IC50AChE/IC50BChE [10] | IC50 [10, 16] [µM] | further results
Cl.Nc1c2c(nc3c1CCC3)CCCC2.O [Amiridine, 9‐amino‐2,3,5,6,7,8‐hexahydro‐1H‐cyclopenta[b]quinoline monohydrochloride monohydrate, reference compound] | 0.040 ± 0.003 | – | – | – | – | – | – | – | – | – | – | IC50 ([1]; read-out: SH‐SY5Y IC50): 135 ± 18.2 µM; IC50 ([2]; read-out: HEK293T IC50): 106 ± 3 µM; IC50 ([3]; HepG2, 24 h, read-out: Hep G2 IC50): 224 ± 11.2 µM; pKa of the endocyclic nitrogen atom [5]: 9.52
Oc1ccccc1CNCCCCNc1c2c(nc3c1CCC3)CCCC2 [10a, 2‐[({4‐[(2,3,5,6,7,8‐Hexahydro‐1H‐cyclopenta[b]quinolin‐9‐yl)amino]butyl}amino)methyl]phenol] | 1.5 ± 0.08 | 90.8 ± 1.3 | 4.49 ± 0.27 | 27.6 ± 1.3 | 10.1 ± 0.5 | 13.6 ± 0.9 | 30.5 ± 2.4 | 2.4 ± 0.15 | 6.2 ± 0.5% | 12.1 | 0.198 ± 0.019 | ABTS^•+‐scavenging activity, TEAC ([4]; listed as 10a as): 1.5
Oc1ccccc1CNCCCCCCCCNc1c2c(nc3c1CCC3)CCCC2 [10c, 2‐[({8‐[(2,3,5,6,7,8‐Hexahydro‐1H‐cyclopenta[b]quinolin‐9‐yl)amino]octyl}amino)methyl]phenol] | 1.48 ± 0.05 | 10.9 ± 0.6 | 2.33 ± 0.15 | 4.19 ± 0.2 | 10.1 ± 0.6 | 15.8 ± 1.1 | 96.7 ± 6.7 | 0.265 ± 0.018 | 56.3±0.3 (IC50= 10.5±0.1 µM) % | 12.0 | 0.022 ± 0.0002 | AChE inhibition, times more active than amiridine [8]: about 17 times; IC50 ([9]; porcine liver CES): 10.5 ± 0.1 µM
CCCCCCNC(=O)c1ccccc1O [compound 14, N‐hexylsalicylamide] | – | – | – | – | – | – | – | – | – | – | – | ABTS^•+‐scavenging activity, TEAC [11]: 0.39 ± 0.04; IC50 ([11]; read-out: ABTS^•+‐scavenging activity, IC50): 46.5 ± 2.3 µM; CES inhibition, % [12]: 4.9 ± 1.0%
O=C(NCCCCCCCCNc1c2c(nc3c1CCC3)CCCC2)c1ccccc1O [7c, N‐{8‐[(2,3,5,6,7,8‐hexahydro‐1H‐cyclopenta[b]quinolin‐9‐yl)amino]octyl}−2‐hydroxybenzamide] | 0.94 ± 0.04 | 7.99 ± 0.3 | 3.62 ± 0.02 | 6.92 ± 1.22 | 19.4 ± 0.6 | 11.8 ± 0.8 | 74.1 ± 5.1 | 1.53 ± 0.03 | 32.9 ± 0.9% | 138 | 0.0111 ± 0.0001 | BChE inhibition, times more effective than amiridine [10]: 25 times; IC50 [10]: 0.011 ± 0.0001 µM
